# Patent US11220527B2, “Peptides derived from the propeptide NTSR3 and their use in the treatment of depression” (CENTRE NATIONAL DE LA RECHERCHE SCIENTIFIQUE, priority 2016, dated 2022)
# Where no end group is shown, it is not given here.
# Key:
# [1] = test system: BrdU-positive cells of the dentate gyrus of the hippocampus; test: Hippocampal neurogenesis by BrdU immunohistochemistry; type: in vivo; conditions: mice, four days of treatment, FIG. 5
# Procedure: BrdU (5-bromo-2′-deoxyuridine) is a synthetic nucleoside analogous to thymidine. It is incorporated during DNA replication during phase S (chromosome duplication during interphase) of the cells in division. Injection of BrdU makes it possible to visualize the cells in division of the tissue to be analyzed by means of immunological labeling. In the present study, the hippocampal neurogenesis of the mice was evaluated after treatment with spadin or the different analogs.
# After the behavioral tests, the mice were injected with BrdU at a final concentration of 120 mg/kg intraperitoneally, according to the modified protocol of Beauquis, J. et al. (Eur J Neurosci 23, 1539-1546, 2007). Four injections of 300 μl at 10 mg/ml, spaced two hours apart, were performed. 24 hours after the injections, the mice were anesthetized with pentobarbital (100 mg/kg) and then perfused intracardially. During the intracardiac perfusion, physiological saline was administered to remove all blood from the body of the mice, and then 4% paraformaldehyde (PFA) was perfused to fix the organs. Post-fixation in 4% PFA was also performed overnight. The brains of the mice were cut with a vibratome (Leica), which allowed 40 μm floating frontal sections to be obtained. The sections selected for the immunological reaction were those ranging from bregma 3.3 to 5.3. Eight sections were selected with a regular spacing, allowing the entire hippocampus to be covered while remaining homogeneous from one brain to another.
# The immunological reaction was performed by incubating an anti-BrdU primary antibody (BD Pharmingen, 1/8000), with the brain sections, overnight at 4° C. The brain sections were then washed in PBS (Phosphate Buffered Saline) and incubated for two hours with the secondary antibody (biotinylated goat anti-mouse antibody, Vector laboratories, 1/400). […]
# The sections were then mounted on slides and fixed with Entellan. BrdU-positive cells of the dentate gyrus of the hippocampus were counted in both hemispheres of each brain. […]
# PSD-95 protein = test: Synaptogenesis: PSD-95 expression in cortical neurons by Western blot; type: cell-based, mouse C57BI/6J; conditions: 1 μM, 0-36 hours, normalized to ß-actin, FIG. 6
# Procedure: Pregnant female C57BI/6J mice (20-25 g, Janvier Labs, St Berthevin, France) were anesthetized by inhalation of 2% isoflurane mixed with 30% oxygen and 70% nitrous oxide, and then sacrificed. The embryos (E14) were removed and the cerebral cortex was dissected in PBS containing 1% glucose. Neurons were prepared from cerebral cortex by mechanical dissociation, as described in Brewer and Torricelli, 2007 [26]. The dissociated neurons were distributed in poly-L-lysine treated plates and cultured for up to 10 days in neurobasal medium containing 2% B27 (Invitrogen, Fisher Scientific, Illkirch, France) and 50 μg/ml gentamycin (Sigma France), at 37° C. under 5% CO2. […]
# Cortical neurons treated with peptides G/A-PE(22-28) and biotinylated G/A-PE(22-28) for different durations (0, 5, 8, 24 and 36 hours) were homogenized in Laemmli buffer and analyzed using 10% SDS-Page gels. […] The ß-actin contents were determined after extraction using a 1/5000 dilution of anti-β-actin antibodies (Santa Cruz mouse monoclonal antibody, dilution 1/5000). […] The proteins were detected with ECL Plus detection reagents (Amersham Biosciences) using the LAS-3000 imaging system (Fujifilm, Düsseldorf, Germany). The relative intensities of each labeled band were analyzed by densitometric scanning using ImageJ software (Wayne Rasband, National Institute of Health, Bethesda, Md., USA). […]
substance,measurement,setting,value
"AVSWGLR [G/A-PE(22-28), AVSWGLR]",neurogenesis (BrdU-positive cells of the hippocampus),[1],increase neurogenesis more strongly than peptide PE(22-28)
same,neurogenesis (BrdU-positive cells of the hippocampus),[1]; listed as G/APE(22-28),capable of inducing an increase in neurogenesis
same,PSD-95 synaptic protein expression (synaptogenesis),PSD-95 protein,increased PSD-95 synaptic protein expression
